Records with an inconclusive call do not appear.
System: M. tuberculosis H37Rv growth inhibition, 7H9 media
Assay: M. tuberculosis growth inhibition, HTS (AID 449762);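 note: bacterial growth assessed after seven days of incubation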
Conditions: for IC90: measured here: IC90 growth inhibition

Compound	IC50	IC90
Oc1ccccc1/C=N/NC(=S)NC1CC2CC1C1C=CCC21 (configuration not stated)	11.1 µM	12.3 µM
Cc1ccc(S(=O)(=O)Nc2cccc3ncccc23)s1	< 0.2 µM	3.93 µM
Cc1cccc(C(=O)OCC(=O)N2CCc3ccccc3C2)c1O	46.3 µM	> 100 µM
O=C(Oc1ccccc1)c1ccccc1OS(=O)(=O)c1ccccc1	1.1 µM	14.3 µM
O=[N+]([O-])c1ccc(COc2ccc(-c3[nH]ncc3-c3ccc(Cl)cc3)c(O)c2)cc1	67.1 µM	> 100 µM
CCN(CC)c1nc(NN)nc(Nc2ccc(C)c(Cl)c2)n1	2.85 µM	6.27 µM
Cc1cc(C)n(C(=O)c2ccc([N+](=O)[O-])cc2[N+](=O)[O-])n1	4.57 µM	8.45 µM
CCCC[C@@H](CN[C@H](C)CNC)NCC1CCC(C(C)(C)C)CC1 (some centres not stated)	18 µM	22.7 µM
COc1ccc2nc(NC(=O)C3CCCN(S(=O)(=O)c4cccs4)C3)sc2c1 (configuration not stated)	18 µM	27.6 µM
c1ccc(CN2CCC3(CCCc4ccccc43)CC2)cc1	10.3 µM	13.6 µM
CCOC(=O)c1cc(/C(C)=N/OC(=O)c2ccc(C(C)(C)C)cc2)on1	13.1 µM	24.8 µM
Clc1ccc(CCC(Cn2ccnc2)Sc2c(Cl)cccc2Cl)cc1 (configuration not stated)	7.79 µM	14.3 µM
O=C(OCc1ccccc1)c1cccc(-c2nnn(Cc3ccccc3)n2)c1	67.7 µM	> 100 µM
Cc1ccc(NC(=O)COC(=O)C(NS(=O)(=O)c2ccc(Cl)cc2)C(C)O)cc1C (configuration not stated)	2.17 µM	8.97 µM
CCN1CCN(c2oc(COc3ccc(-c4ccccc4)cc3)nc2C#N)CC1	43.4 µM	48.4 µM
CN(CC(=O)Nc1ccc(OC(F)(F)F)cc1)C(=O)/C=C/c1cc2c(cc1[N+](=O)[O-])OCO2	30.2 µM	37.9 µM
Cc1nn2c(NCc3ccccn3)cc(C(C)C)nc2c1-c1ccccc1	2.34 µM	3.29 µM
CCN1CSC(=S)N(Cc2ccccc2)C1	10.5 µM	24.1 µM
NC1=NC2(CCC(c3ccccc3)CC2)n2c(nc3ccccc32)N1 (configuration not stated)	28.6 µM	38.3 µM
Oc1ccccc1-c1nnc(COc2ccccc2)o1	7.64 µM	34.7 µM
CCOC(=O)C(C)Oc1ccc(NC(=O)C(Cl)(Cl)Cl)cc1 (configuration not stated)	2.38 µM	5.08 µM

Compound	IC50	IC90
COc1ccc(-n2c(-c3ccc(Cl)cc3)c[n+]3c2CCc2ccccc2-3)cc1	16.4 µM	24.2 µM
Cc1ccc(C(=O)C[n+]2cc(-c3ccc(C)cc3)n3c2CCCCC3)cc1	15.3 µM	19.8 µM
Cc1cccc(NC(=O)CCSc2nnc(Cc3ccccc3)o2)c1	17.1 µM	49.3 µM
CCOc1cc(C(=O)OCc2ccc(C(=O)OC)o2)cc(Br)c1OC	61.7 µM	> 100 µM
Cn1nnc(NC(=S)NC(=O)c2ccc(-c3ccc(Br)cc3)o2)n1	–	> 100 µM
Cc1cc(=O)oc2cc(Oc3ccc([N+](=O)[O-])cc3C(F)(F)F)ccc12	68.7 µM	> 100 µM
CC1CCN(C(=O)c2ccc(-c3ccccc3Cl)o2)CC1	17.9 µM	65.8 µM
C=CCNc1oc(-c2ccc(-c3ccccc3)cc2)nc1C#N	12.2 µM	13.7 µM
COc1cc(C)c(/C=C/C(C)=C/C=C/C(C)=C/C(=O)O)c(C)c1C	1.56 µM	6.76 µM
CCc1ccc2nc(N(CCCN(C)C)C(=O)c3ccc(S(=O)(=O)N4CCCc5ccccc54)cc3)sc2c1	28.1 µM	33.9 µM
Cc1ccc(S(=O)(=O)CNC(=S)c2ccc3ccccc3c2)cc1	–	> 100 µM
c1ccc(Cn2nnc3c(N4CCc5ccccc5C4)ncnc32)cc1	19.7 µM	72.8 µM
O=C(CCl)c1ccc2c(c1)CCN2C(=O)C1CCCCC1	16.7 µM	> 100 µM
CCOC(=O)C1CCN(c2cc3c(cc2NC(=O)c2ccccc2Cl)n(C)c(=O)n3C)CC1	46.6 µM	53.9 µM
O=[N+]([O-])c1cc([N+](=O)[O-])c2c(=Nc3ccccc3)n(-c3ccccc3)n(O)c2c1	6.35 µM	9.25 µM
Cc1nc2sccn2c1-c1nc(-c2cc3ccccc3o2)cs1	52.5 µM	90.7 µM
O=[N+]([O-])c1cc(-c2nc(-c3ccncc3)no2)cc([N+](=O)[O-])c1	3.64 µM	11.4 µM
C#CCOCCOCCOCCNc1nc(N2CCN(C(=O)C(Cc3ccc(O)cc3)n3cc(C(N)CC(C)C)nn3)CC2)nc(N2CCN(C(=O)C(Cc3cc4ccccc4[nH]3)n3cc(C(N)Cc4ccc(O)cc4)nn3)CC2)n1 (configuration not stated)	6.03 µM	6.93 µM
CNC[C@H](Cc1cccc2ccccc12)NC[C@H](CCSC)NCC1CCC(C(C)(C)C)CC1 (some centres not stated)	22.4 µM	24.2 µM
COc1cc(/C=C/C(=O)c2c(O)n(CCc3ccccc3)c(=O)[nH]c2=O)ccc1O	4.59 µM	11.5 µM
CCN(CC)c1ccc(/C=C2\SC(=O)N(C(C)C)C2=O)o1	1.34 µM	4.79 µM

Compound	IC50	IC90
CSc1nsc(SCC(=O)N2CCCCC2)n1	5.47 µM	8.81 µM
Cc1ccc(/C=C/S(=O)(=O)NCC(=O)OCC(=O)Nc2c(F)cccc2F)cc1	5.26 µM	13.2 µM
CCOc1ccc(N2CC(=O)Nc3ccccc3NCC2=O)cc1	52.7 µM	78.2 µM
CCOC(=O)COc1ccc(C2CC(C)=NN2c2ccccc2)cc1 (configuration not stated)	2.81 µM	17.7 µM
CCc1cc(OCCCCNCc2ccccc2)ccc1Cl	26.3 µM	30.4 µM
Cc1ccc(Cl)cc1N1CCN(CC(=O)NC2CCCc3ccccc32)CC1 (configuration not stated)	31.5 µM	46.1 µM
O=[N+]([O-])c1c(C(Cl)Cl)nn(-c2ccc(Cl)cc2)c1N1CCCCC1	15.6 µM	19.4 µM
O=C(CSc1nnc(-c2cccs2)o1)NCC1CN(Cc2ccccc2)CCO1 (configuration not stated)	5.22 µM	15.2 µM
Cc1cc(C)cc(NC(=O)CCc2ccc(C)o2)c1	43 µM	> 100 µM
CC(C)(C)c1ccc(Cn2c(=N)n(CC(O)c3ccco3)c3ccccc32)cc1 (configuration not stated)	17.6 µM	22.2 µM
CCO[C@H]1OC(C(=O)NCc2nc3ccccc3[nH]2)=C[C@@H](c2csc3ccccc23)[C@@H]1CCCO	44.8 µM	50.5 µM
Cc1cccc(N(C(=O)c2nsc(Cl)c2Cl)C(C(=O)NC2CCCC2)c2ccc(O)cc2)c1C (configuration not stated)	21.7 µM	28.2 µM
Cc1onc(-c2ccccc2Cl)c1C(=O)Oc1cccc2cccnc12	2.84 µM	4.24 µM
COC(=O)c1ccc(/C=C/c2c(-c3ccsc3)oc3ccc(N4CCOCC4)cc23)cc1	21.2 µM	41.2 µM
COc1ccc(/C=N/OCC(=O)OCC(=O)N(C)c2ccccc2)cc1	8.22 µM	39.1 µM
Nc1nc(CN2CCN(c3ccccc3F)CC2)nc(N2CCCc3ccccc32)n1	4.99 µM	14 µM
Cc1ccc(NN=C2c3ccccc3-c3ccccc32)cc1	45.5 µM	> 100 µM
CCOC(=O)c1ccc(NC(=S)NCCc2ccc(F)cc2)cc1	42.4 µM	> 100 µM
CCOC(=O)CCCc1ccc(/C(C)=N/NC(N)=S)cc1	6.5 µM	14.7 µM
CCCC(=O)OCCNc1cc(SCCC(=O)OC)c2nonc2c1[N+](=O)[O-]	1.49 µM	5.7 µM

From PubChem BioAssay AID449762 (Southern Research Specialized Biocontainment Screening …, 2010)
